Data published in the supplement of paper PMC10949913.

Experiments:
Details in all cases: 48 h
CU-ACC2 [1] = assay: AC50 viability; higher = less potent
In short: (§1)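 Concentration-response curves were fitted to obtain AC50 and area under the curve, keeping inhibitory or non-responding curve classes only. Data came from CellTiter-Glo luminescence, normalised per plate to vehicle and empty-well controls, in three adrenocortical carcinoma cell lines. These were treated in 1,536-well plates with library compounds at 11 concentrations and read after 48 h.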

CU-ACC2 [2] = assay: area under concentration-response curve (viability) (AUC (a.u.)); higher = less active
In short: as §1

CU-ACC1 = assay: as above
In short: as §1

NCI-H295R = assay: as above
In short: as §1

Structure (SMILES)	AC50 viability (CU-ACC2 [1]) [µM]	area under concentration-response curve (CU-ACC2 [2])	area under concentration-response curve (CU-ACC1)	area under concentration-response curve (NCI-H295R)
CN(C1=CC=CC=C1)C(=O)C/2=C(O)/C3=C(C=CC=C3)N(C)C2=O	37.2	399	344	317
C/C(=N\NC(=S)N1CCC1)c1ccccn1	0.417	453	292	396
Cc1ccc(Nc2ncc3c(n2)N(C)C(=O)N(c2cc(NC(=O)c4cccc(C(F)(F)F)c4)ccc2C)C3)cn1	5.25	504	501	532
CC(C)N(CCC(=O)c1ccc2ccccc2c1)Cc1ccccc1	20.9	609	557	603
Cc1cnc(C(=O)NCCc2ccc([S+](=O)([O-])NC(=O)NC3CCCCC3)cc2)cn1	33.2	404	355	
N[S+](=O)([O-])c1ccc(Cc2c(-c3cccc(-c4ccccc4)c3)nn(-c3nc(C(=O)O)cs3)c2CC2CC2)cc1	5.9	388	373	405
O=C(NCc1ccc([S+](=O)([O-])c2cccc(C(F)(F)F)c2)cc1)c1cnc2[nH]ncc2c1	0.0186	362	347	407
CC(C)(C)OC(=O)CN(Cc1ccc(Cl)cc1)Cc1ccc([N+](=O)[O-])s1	37.2	479	410	405
Cc1cccc(-c2[nH]c(C(C)(C)C)nc2-c2ccc3nccnc3c2)n1	0.263	331	293	
COC(=O)Nc1nc2cc(Sc3ccccc3)ccc2[nH]1	5.25	393	368	431
N#Cc1ccnc(Nc2cc(C3CCN(C4COC4)CC3)cc(N3CCC(F)(F)C3)n2)c1	1.66	467	458	471
Cc1c(NC(=O)OC[C@@H]2COCCN2)cn2ncnc(Nc3ccc4c(cnn4Cc4cccc(F)c4)c3)c12	18.6	544	393	
CC1(C)CNc2cc(NC(=O)c3cccnc3NCc3ccncc3)ccc21	0.263	317	379	373
CCOc1cc(N2CCC(O)CC2)ccc1Nc1ncc2c(n1)N(C)c1ccccc1C(=O)N2C	20.9	525	450	479
Nc1ccc(C(=O)Nc2cccc(-c3nc(N4CCOCC4)c4oc5ncccc5c4n3)c2)cn1	1.48	414	434	396
[2H]C([2H])([2H])C(O)([C@@H](C)/C=C/[C@@H](C)[C@H]1CC[C@H]2/C(=C/C=C3C[C@@H](O)C[C@H](O)C3)CCC[C@]12C)C([2H])([2H])[2H]	0.235	309	347	
Cn1cc(/C=C2\C(=O)Nc3cccnc32)c2ccccc21	0.105	320	349	373
CCN(CC)C(=S)SSC(=S)N(CC)CC	14.8	465	366	472
C\C1=C(\[C@@H](OC2=C1C=CC(=C2)O)C3=CC=C(OCCN4CCCCC4)C=C3)C5=CC=C(O)C=C5	0.295	333	296	
OCc1ccc(-c2ccc(-c3ccc(CO)s3)o2)s1	37.2	532	507	
CONC(=O)c1ccccc1Nc1cc(Nc2cc(C)nn2C(C)C)ncc1Cl	16.6	459	455	
CC#CC(=O)N1CC[C@@H](n2c(=O)n(-c3ccc(Oc4ccccc4)cc3)c3c(N)ncnc32)C1	13.2	428	425	
C=CC(=O)N1CCC[C@H](n2c(=O)n(-c3ccc(Oc4ccccc4)cc3)c3c(N)ncnc32)C1	20.9	410	352	410
C[C@]1(O)CC(C1)C2=NC(=C3[N]2C=CN=C3N)C4=CC5=C(C=C4)C=CC(=N5)C6=CC=CC=C6 (stereo unspecified)	18.6	411		373
Cc1cc(OCc2nnc(SC3CCCC3)n2-c2cccnc2)ccc1-c1ccc([S+](C)(=O)[O-])cc1	2.35	324	271	362
Fc1ccc(-c2nc(-c3ccccc3F)[nH]c2-c2ccncc2)cc1	33.2	399	336	

Structure (SMILES)	AC50 viability (CU-ACC2 [1]) [µM]	area under concentration-response curve (CU-ACC2 [2])	area under concentration-response curve (CU-ACC1)	area under concentration-response curve (NCI-H295R)
CC(C)n1cnc2c(NCCc3ccc(O)cc3)nc(-c3csc4ccccc34)nc21	9.34	325	335	
COc1ccc2c(c1)[C@]1(C[C@H]1c1ccc3c(/C=C/c4ccc(CN5C[C@@H](C)O[C@@H](C)C5)cc4)n[nH]c3c1)C(=O)N2	1.86	344	384	
COc1c(C)cnc(Cn2cnc3c(Cl)nc(N)nc32)c1C	0.661	378	361	
CNCc1ccc(-c2[nH]c3cc(F)cc4c3c2CCNC4=O)cc1	26.3	495	416	
CC1(C)C(N(O)C(=O)Nc2ccc(Cl)cc2)N(c2ccc(Cl)cc2)C(=O)N1CC(=O)N/N=C/C=C/c1ccc([N+](=O)[O-])o1 (stereo unspecified)	23.5	561	511	
CCN1C(=O)\C(=C/C2=CN=C(NCCC3CCN(C)CC3)N=C12)C4=CC=C(C=C4Cl)C5=CN=CC(=N5)C	2.63	624	645	
C=CC[C@@H]1/C=C(\C)C[C@H](C)C[C@H](OC)[C@H]2O[C@@](O)(C(=O)C(=O)N3CCCC[C@H]3C(=O)O[C@H](/C(C)=C/[C@@H]3CC[C@@H](O)[C@H](OC)C3)[C@H](C)[C@@H](O)CC1=O)[C@H](C)C[C@@H]2OC	18.6	390	383	
Cc1[nH]c(/C=C2\C(=O)Nc3ccc(F)cc32)c(C)c1C(=O)NCCN1CCCC1	14.4	525	522	
C[C@@H](N)c1ccc(C(=O)Nc2ccnc3[nH]ccc23)cc1	2.63	297	349	
C=CC(=O)Nc1cccc(Nc2nc(Nc3ccc(OCCOC)cc3)ncc2F)c1	20.9	597		545
CO[C@@H]1C(N(C)C(=O)c2ccccc2)C[C@H]2O[C@]1(C)n1c3ccccc3c3c4c(c5c6ccccc6n2c5c31)C(=O)NC4=O (stereo partly specified)	0.186	286	362	
O=C(NCCCNc1nc(Nc2cccc(CN3CCOCC3)c2)ncc1C1CC1)C1CCC1	33.2	452		220
COc1cc(Nc2cnc(C#N)c(O[C@H](C)CN(C)C)n2)ncc1-c1cnn(C)c1	10.5	399	312	
CNC(=O)c1cccc2cc(Oc3ccnc4cc(OCC5(N)CC5)c(OC)cc34)ccc12	1.66	305	356	
CCNC1(C(N)=O)CCN(c2ncnc3c2nc(-c2ccccc2Cl)n3-c2ccc(Cl)cc2)CC1	0.295	330		
CCOC(=O)c1ccnc(CNCC(=O)N(CC)CCN(C)C)c1	0.661	339	338	
O=C(Nc1ccc([S+](=O)([O-])N2CCOCC2)cc1)c1cc(Cl)ccc1N[S+](=O)([O-])c1ccc(Cl)s1	18.6	530	481	
O=C(CCCCCCNC(=O)c1cnc(N(c2ccccc2)c2ccccc2Cl)nc1)NO	11.8	502	464	
CCN(CC)CCOc1ccc(/C(=C(\Cl)c2ccccc2)c2ccccc2)cc1	10.5	203		131
CCOc1cc2ncc(C#N)c(Nc3ccc(F)c(Cl)c3)c2cc1NC(=O)/C=C/CN(C)C	8.33	419		
COc1c(Cl)cc2c([nH]c3cnccc32)c1NC(=O)c1cccnc1C	7.42	374		
CC(C)[C@H](CO)Nc1nc(Nc2cccc(Cl)c2)c2ncn(C(C)C)c2n1	29.5	591	551	
C[C@H](NC(=O)[C@@H]1C[C@@H](O)CN1C(=O)[C@@H](NC(=O)COCCCOCCNC(=O)C[C@@H]2\N=C(C3=CC=C(Cl)C=C3)/C4=C(SC(=C4C)C)[N]5C(=NN=C25)C)C(C)(C)C)C6=CC=C(C=C6)C7=C(C)N=CS7	8.33	478	474	
C=C(C)[C@@H]1CCC(C)=C[C@H]1c1c(O)cc(CCCCC)cc1O	18.6	489	467	
CN1CCN(CCOc2cc(OC3CCOCC3)c3c(Nc4c(Cl)ccc5c4OCO5)ncnc3c2)CC1	23.5	548	547	
